PubChem BioAssay AID248 (DTP/NCI, 2004)
Inconclusive results and toxic doses are left out. Cut-off read from the data, not from the text of the source: active = T/C of 150% or more; inactive = T/C below 125%.

Test system: L1210 leukemia ip in BDF1 mice, survival T/C
Assay: NCI In Vivo Anticancer Drug Screen. Data for tumor model L1210 Leukemia (intraperitoneal) in B6D2F1 (BDF1) mice
Settings: endpoint: mean survival time, higher = longer survival
Outline: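 Read-out is survival time, reported as the treated-group measurement over the vehicle-control measurement.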

[1] = dose: 100.0 mg/kg/injection, schedule: Q01DX009 (ip), vehicle: Klucel (hydroxypropylcellulose) (HPC)
[2] = dose: 100.0 mg/kg/injection, schedule: Q04DX003 (ip), vehicle: Klucel (hydroxypropylcellulose) (HPC)
[3] = dose: 200.0 mg/kg/injection, schedule: Q04DX003 (ip), vehicle: Klucel (hydroxypropylcellulose) (HPC)
[4] = dose: 400.0 mg/kg/injection, schedule: Q01DX009 (ip), vehicle: Klucel (hydroxypropylcellulose) (HPC)
[5] = dose: 400.0 mg/kg/injection, schedule: Q04DX003 (ip), vehicle: Klucel (hydroxypropylcellulose) (HPC)
[6] = dose: 100.0 mg/kg/injection, schedule: Q01DX001 (ip), vehicle: saline
[7] = dose: 200.0 mg/kg/injection, schedule: Q01DX001 (ip), vehicle: saline
[8] = dose: 400.0 mg/kg/injection, schedule: Q01DX001 (ip), vehicle: saline
[9] = dose: 200.0 mg/kg/injection, schedule: Q01DX009 (ip), vehicle: Klucel (hydroxypropylcellulose) (HPC)
[10] = dose: 50.0 mg/kg/injection, schedule: Q01DX001 (ip), vehicle: carboxymethylcellulose (CMC)
[11] = dose: 100.0 mg/kg/injection, schedule: Q01DX001 (ip), vehicle: carboxymethylcellulose (CMC)
[12] = dose: 200.0 mg/kg/injection, schedule: Q01DX001 (ip), vehicle: carboxymethylcellulose (CMC)
[13] = dose: 400.0 mg/kg/injection, schedule: Q01DX001 (ip), vehicle: carboxymethylcellulose (CMC)
[14] = dose: 100.0 mg/kg/injection, schedule: Q04DX003 (ip), vehicle: saline
[15] = dose: 200.0 mg/kg/injection, schedule: Q04DX003 (ip), vehicle: saline
[16] = dose: 400.0 mg/kg/injection, schedule: Q04DX003 (ip), vehicle: saline

Measured: T/C

COc1cc(/C=c2\[nH]c(=O)/c(=C/c3cc(OC)c(OC)c(OC)c3)[nH]c2=O)cc(OC)c1OC
inactive: [1] 86 % of control | [2] 93 % of control | [3] 93 % of control | [4] 87 % of control | [5] 88 % of control

O=c1c(-c2ccccc2)c(-c2ccccc2)n2n1C1CCC2C1 (stereo not given)
inactive: [6] 95 % of control | [7] 89 % of control | [8] 110 % of control

O/N=C/c1cccn1-c1cccc2c(-n3cccc3/C=N/O)cccc12
inactive: dose: 25.0 mg/kg/injection, schedule: Q04DX002 (ip), vehicle: Klucel (hydroxypropylcellulose) (HPC) 101 % of control | dose: 50.0 mg/kg/injection, schedule: Q04DX002 (ip), vehicle: Klucel (hydroxypropylcellulose) (HPC) 93 % of control | dose: 100.0 mg/kg/injection, schedule: Q04DX002 (ip), vehicle: Klucel (hydroxypropylcellulose) (HPC) 97 % of control

CC1(CO)CC2CCC1C2 (stereo not given)
inactive: [2] 104 % of control | [3] 108 % of control | [5] 106 % of control

CCOC(=O)C(C)NCc1ccccc1 (stereo not given)
inactive: [1] 94 % of control | [2] 98 % of control | [9] 111 % of control | [3] 93 % of control | [4] 103 % of control | [5] 96 % of control

c1ccc(-c2cc3ccccc3[nH]2)nc1
inactive: [2] 95 % of control | [3] 93 % of control | [5] 93 % of control

CCOc1ccc(C(C)CC(=O)NN)c(O)c1 (stereo not given)
inactive: dose: 75.0 mg/kg/injection, schedule: Q01DX001 (ip), vehicle: saline with Tween-80 95 % of control | dose: 150.0 mg/kg/injection, schedule: Q01DX001 (ip), vehicle: saline with Tween-80 98 % of control | dose: 300.0 mg/kg/injection, schedule: Q01DX001 (ip), vehicle: saline with Tween-80 101 % of control

NC(=O)CCc1cnc2ccccc2n1
inactive: [1] 89 % of control | [2] 106 % of control | [9] 95 % of control | [3] 106 % of control | [4] 90 % of control | [5] 97 % of control

CC(OC(=O)c1ccc([N+](=O)[O-])cc1)C(C)OC(=O)c1ccc([N+](=O)[O-])cc1 (stereo not given)
inactive: dose: 100.0 mg/kg/injection, schedule: Q01DX001 (ip), vehicle: Klucel (hydroxypropylcellulose) (HPC) 92 % of control | dose: 200.0 mg/kg/injection, schedule: Q01DX001 (ip), vehicle: Klucel (hydroxypropylcellulose) (HPC) 97 % of control | dose: 400.0 mg/kg/injection, schedule: Q01DX001 (ip), vehicle: Klucel (hydroxypropylcellulose) (HPC) 97 % of control

Cc1ccc(S(=O)(=O)N=P(c2ccccc2)(c2ccccc2)c2ccccc2)cc1
inactive: [10] 90 % of control | [11] 95 % of control | dose: 100.0 mg/kg/injection, schedule: Q04DX003 (ip), vehicle: saline with Tween-80 86 % of control | [12] 92 % of control | dose: 200.0 mg/kg/injection, schedule: Q04DX003 (ip), vehicle: saline with Tween-80 86 % of control | [13] 86 % of control | dose: 400.0 mg/kg/injection, schedule: Q04DX003 (ip), vehicle: saline with Tween-80 91 % of control

CCOC(OCC)c1cc(=O)[nH]c(NC(C)=O)n1
inactive: [1] 101 % of control | [9] 101 % of control | [4] 106 % of control

COC(=O)C1=C(O)CCCC=C1C(=O)O
inactive: [11] 100 % of control | [12] 103 % of control | [13] 103 % of control

COC(=O)C1OC(n2cnc3c(=S)nc[nH]c32)C(OC(C)=O)C(OC(C)=O)C1OC(C)=O (stereo not given)
inactive: [10] 103 % of control | [11] 100 % of control | [12] 100 % of control | [13] 94 % of control

O=C(c1ccc([N+](=O)[O-])cc1)c1ccc(O)cc1O
inactive: dose: 100.0 mg/kg/injection, schedule: Q01DX001 (ip), vehicle: other 101 % of control | dose: 100.0 mg/kg/injection, schedule: Q04DX003 (ip), vehicle: other 100 % of control | dose: 200.0 mg/kg/injection, schedule: Q01DX001 (ip), vehicle: other 101 % of control | dose: 200.0 mg/kg/injection, schedule: Q04DX003 (ip), vehicle: other 101 % of control | dose: 400.0 mg/kg/injection, schedule: Q01DX001 (ip), vehicle: other 103 % of control | dose: 400.0 mg/kg/injection, schedule: Q04DX003 (ip), vehicle: other 97 % of control

CCCCCCCCSP(=S)(N1CC1)N1CC1
inactive: dose: 50.0 mg/kg/injection, schedule: Q01DX001 (ip), vehicle: saline 102 % of control | [6] 108 % of control | [7] 98 % of control | [8] 96 % of control

O=C(O)c1ccc2cc(O)ccc2c1
inactive: [14] 92 % of control | [15] 98 % of control | [16] 97 % of control

COc1ccc(NC(=S)Nc2ccc(OC)cc2)cc1
inactive: [1] 101 % of control | [2] 103 % of control | [9] 105 % of control | [3] 103 % of control | [4] 92 % of control | [5] 94 % of control

Cc1cc(C(=O)Nc2ccc(NC3=NCCN3)cc2)c(C)cc1C(=O)Nc1ccc(NC2=NCCN2)cc1
inactive: dose: 1.88 mg/kg/injection, schedule: Q01DX Z (ip), vehicle: saline 93 % of control | dose: 3.75 mg/kg/injection, schedule: Q01DX Z (ip), vehicle: saline 98 % of control | dose: 7.5 mg/kg/injection, schedule: Q01DX Z (ip), vehicle: saline 94 % of control | dose: 15.0 mg/kg/injection, schedule: Q01DX Z (ip), vehicle: saline 108 % of control | dose: 30.0 mg/kg/injection, schedule: Q01DX Z (ip), vehicle: saline 103 % of control

CCOC(=O)Nc1cc(NCC(O)CN(C)c2ccc(OC)cc2)c([N+](=O)[O-])c(N)n1 (stereo not given)
inactive: dose: 100.0 mg/kg/injection, schedule: Q01DX001 (ip), vehicle: saline with Tween-80 95 % of control | dose: 200.0 mg/kg/injection, schedule: Q01DX001 (ip), vehicle: saline with Tween-80 93 % of control | dose: 400.0 mg/kg/injection, schedule: Q01DX001 (ip), vehicle: saline with Tween-80 88 % of control

[Se]=P(c1ccccc1)(c1ccccc1)c1ccccc1
inactive: [1] 103 % of control | [9] 90 % of control

CC(=O)N(C)c1ccc(N)cc1
inactive: dose: 100.0 mg/kg/injection, schedule: Q01DX009 (ip), vehicle: saline 104 % of control | [14] 100 % of control | dose: 200.0 mg/kg/injection, schedule: Q01DX009 (ip), vehicle: saline 98 % of control | [15] 105 % of control | dose: 400.0 mg/kg/injection, schedule: Q01DX009 (ip), vehicle: saline 93 % of control | [16] 102 % of control

CCCCOc1ccc(Nc2c3ccccc3nc3ccccc23)cc1
inactive: [2] 123 % of control

CCc1ccccc1NC(=O)NCc1ccc(C)c(C)c1
inactive: dose: 25.0 mg/kg/injection, schedule: Q01DX009 (ip), vehicle: Klucel (hydroxypropylcellulose) (HPC) 98 % of control | dose: 50.0 mg/kg/injection, schedule: Q01DX009 (ip), vehicle: Klucel (hydroxypropylcellulose) (HPC) 93 % of control | [1] 93 % of control | [9] 94 % of control | [4] 98 % of control

Cc1ccc(NC(=S)N(C)C)cc1Cl
inactive: [1] 97 % of control | [2] 104 % of control | [9] 101 % of control | [3] 97 % of control | [4] 100 % of control | [5] 104 % of control

CCCOC(=O)CCl
inactive: [6] 113 % of control
